Columns and labels:
rpoB gene [1] = assay: rpoB/Rif^r assay: EMS mutagenesis of E. coli KL16 carrying pNUC-dSpCas9 + pGUIDE-Sp-Zm7.1; type: cell-based, Escherichia coli; conditions: for Rif^r CFUs in 5 μL (average) / Rif^r CFUs in 100 μL (average): one hour, cells with pNUC-dCas9 + pGUIDE-Sp-Zm7.1
Description: This example describes the Escherichia coli rpoB gene and Rifampicin-resistant (Rif^r) mutations that map to rpoB as a system to characterize mutation rates and mutation types induced by chemical mutagens.
The E. coli K12 (strain MG1655) rpoB gene (SEQ ID NO: 1) encodes a subunit of the RNA polymerase complex (SEQ ID NO: 2) and is the target of the antibiotic rifampicin, a bacterial transcription inhibitor. A unique feature of the rpoB gene is that at least 69 nucleotide substitutions in 24 amino acid codons can confer the Rif^r phenotype to E. coli. This makes rpoB a useful target for screening and analyzing the type and frequency of nucleotide changes (e.g., additions, deletions, and substitutions induced by mutagens (reviewed in Garibyan et al., 2003, DNA Repair, 2:593-608). Furthermore, a majority of mutations that confer Rifampicin resistance (>90%) map to a relatively small, 268-nucleotide long, region of the rpoB gene. This allows PCR amplification with a single pair of oligonucleotide primers, followed by sequencing, which permits rapid analysis of numerous potential mutations. The aforementioned 268-bp fragment of the E. coli K12 rpoB gene is set forth as SEQ ID NO: 3. […] However, mutants comprising short, in-frame deletions (up to five amino acids) have been found, but at a much lower frequency (see, for example, Jin and Gross, J Mol Biol. 202:45-58 (1988)).
To test the rate and spectrum of mutations induced by EMS on rpoB, an experiment was performed where E. coli KL16 cells were co-transformed with pNUC-dSpCas9 and pGUIDE-Sp-Zm7.1; treated with 0.1% or 1% EMS. Resulting Rif^r mutations were selected and scored. The rpoB gene fragment (SEQ ID NO: 3) was sequenced from each colony and the predominant mutations were identified. As noted above in Example 2, pGUIDE-Sp-Zm7.1 is not expected to target the E. coli chromosome, and thus serves as a negative control.
Approximately 0.7 μL of pNUC-dSpCas9 and pGUIDE-Sp-Zm7.1 plasmid DNAs (approximate concentrations of 50 to 150 ng/μL) were added to 30 μL aliquots of electrocompetent E. coli KL16 cells. The cells and DNA were electroporated in 1 mm gap cuvettes, using Bio-Rad GenePulser II with settings described above in Example 2. Approximately 1 mL of S.O.C. medium was added to the cuvettes, mixed, transferred to culture tubes, and shaken in a 37° C. incubator shaker for ˜90 min at 280 RPM. Approximately 20 μL of the mix was diluted with 380 μL of S.O.C. medium (1:20 dilution), 100 μL was plated on LB plates containing +25 μg/mL Cm, +50 μg/mL Spect antibiotics followed by overnight incubation at 37° C. After overnight growth, the plates contained ˜100-400 uniform single colonies. Four to five single colonies from the plates were picked and mixed in 2.5 mL liquid LB media containing +25 μg/mL Cm, +50 μg/mL Spect. The culture was grown overnight at 37° C. with shaking at 280 RPM. The following day the saturated overnight culture was diluted into 3 mL of fresh LB +25 μg/mL Cm, +50 μg/mL Spect at a 1:20 ratio. After growth for ˜3 hours shaking (280 RPM) at 37° C., the culture was in exponential growth with an A600 absorbance measurement of ˜1. The culture was split into three 1 mL aliquots in Eppendorf tubes, then spun at full speed for one minute. The LB supernatant was removed and the small pellets were resuspended by gentle pipetting into 1 mL PBS and transferred to culture tubes.
Approximately 1 μL of EMS (Sigma M0880) was added to the first tube (0.1% EMS, final conc.) and approximately 10 μL of EMS was added to the second tube (1% EMS, final conc.). The third tube received no EMS (0% EMS). After mixing, the tubes were incubated at 37° C. with shaking for one hour. The 1 mL cultures were transferred back into Eppendorf tubes and spun at full speed for 1 minute. The pellets were washed once with PBS to remove EMS and resuspended in 1 mL LB+25 μg/mL Cm, +50 μg/mL Spect. […]

rpoB gene [2] = assay: Deep sequencing of the rpoB fragment from Rif^r colonies; type: cell-based, Escherichia coli; conditions: 0.1% and 1% EMS, untargeted dCas9
Method: Ninety-six Rif^r colonies from 0.1% and 1% EMS treatment assays were picked and colony PCR was carried out to amplify the […] rpoB fragment. Approximately 20 μL PCRs reactions were carried out in 96 well plates, using forward and reverse primers comprising Illumina barcoded adaptors and designed to amplify a […] rpoB fragment associated with mutations conferring the Rif^r phenotype. The success of the reactions was checked by running ˜5 μL of 8-12 samples picked from across the 96 wells and running on e-gels. […] After obtaining the raw reads, adaptor sequences were removed with the program Cutadapt (Martin, EMBnet.journal, 2011, [S1], v17, n1, p. pp. 10-12, ISSN 2226-6089) and low quality reads are filtered with Trimmomatic (Version 0.36) (Bolger et al., Bioinformatics, 30:2114 (2014)). The program ‘glsearch’ (Pearson, Methods Mol Biol., 132:185-219 (2000)), was used to map reads to the reference rpoB sequence and to detect substitutions and small INDELs. […]
Individual colonies as well as plate scrapes (pooled colonies) were sequenced. […] Quality reads were obtained from 71 colonies for treatment 1, 92 colonies for treatment 2, and 89 colonies for treatment 3. Quality reads were also obtained from the Plate scrape samples.

[3] = EMS-mutated populations; cited from earlier work
rpoB gene [4] = conditions: at eight sites; Garibyan et al.; cited from earlier work
DNA = conditions: D832A/E925A (dLbCpf1); D10A/H840A (dSpCas9); cited from earlier work

Compound	increase of mutation rate relative to the spontaneous mutation rate (rpoB gene [1]; 0.1% EMS) [×]	Rif^r CFUs in 5 μL (average) (rpoB gene [1]; 0.1% EMS) [CFUs]	Rif^r CFUs in 100 μL (average) (rpoB gene [1]; 0.1% EMS) [CFUs]	increase of mutation rate relative to the spontaneous mutation rate (rpoB gene [1]; 1.0% EMS) [×]	Rif^r CFUs in 5 μL (average) (rpoB gene [1]; 1% EMS) [CFUs]	Rif^r CFUs in 100 μL (average) (rpoB gene [1]; 1% EMS)	colonies with an in-frame 15 nucleotide deletion (rpoB gene [2])	mutations previously described as inducing the Rif^r phenotype identified in the EMS screen (rpoB gene [2])	modifications that are G:C→A:T base pair transitions [3]	mutations identified within the 268-bp stretch of rpoB, all G:C→A:T transitions (rpoB gene [4])	DNA cleavage activity (DNA)
CCOS(C)(=O)=O [EMS, ethyl methanesulfonate]	~40	18	280	~2600	1036	>10^4 CFUs	Four	ten of the thirteen	70% to 99%	40	
dSpCas9: dead SpCas9 with D10A and H840A substitutions (SEQ ID NO: 22)											complete abolishment of DNA cleavage activity

Reference: patent US20200347389A1, “COMPOSITIONS AND METHODS FOR GENERATING DIVERSITY AT TARGETED NUCLEIC ACID SEQUENCES” (MONSANTO TECHNOLOGY LLC, priority 2019, published 2020)
